Data taken from US20160083357A1, “NOVEL TETRAZOLONE DERIVATIVES” (Hoffmann-La Roche Inc., priority 2013, published 2016).
pEC50: −log10 of the molar value. Where two headings read alike, the source gives them in different places.

Tests used:
[1] = biological target: T1, human CB2 receptors (Homo sapiens, UniProt P34972); experiment: cAMP assay, human CB2; type: cell-based
T1 construct: expressed in transfected cells; host or cells: CHO cells
Experimental: (§1) CHO cells expressing human CB1 or CB2 receptors are seeded 17-24 hours prior to the experiment 50.000 cells per well in a black 96 well plate with flat clear bottom (Corning Costar #3904) in DMEM (Invitrogen No. 31331), lx HT supplement, with 10% fetal calf serum and incubated at 5% CO2 and 37° C. in a humidified incubator. The growth medium was exchanged with Krebs Ringer Bicarbonate buffer with 1 mM IBMX and incubated at 30° C. for 30 min. Compounds were added to a final assay volume of 100 μl and incubated for 30 min at 30° C. Using the cAMP-Nano-TRF detection kit the assay (Roche Diagnostics) was stopped by the addition of 50 μl lysis reagent (Tris, NaCl, 1.5% Triton X100, 2.5% NP40, 10% NaN3) and 50 μl detection solutions (20 μM mAb Alexa700-cAMP 1:1, and 48 μM Ruthenium-2-AHA-cAMP) and shaken for 2 h at room temperature. The time-resolved energy transfer is measured by a TRF reader (Evotec Technologies GmbH), equipped with a ND:YAG laser as excitation source. The plate is measured twice with the excitation at 355 nm and at the emission with a delay of 100 ns and a gate of 100 ns, total exposure time 10 s at 730 (bandwidth 30 nm) or 645 nm (bandwidth 75 nm), respectively. The FRET signal is calculated as follows: FRET=T730-Alexa730-P(T645-B645) with P=Ru730-B730/Ru645-B645, where T730 is the test well measured at 730 nM, T645 is the test well measured at 645 nm, B730 and B645 are the buffer controls at 730 nm and 645 nm, respectively. cAMP content is determined from the function of a standard curve spanning from 10 μM to 0.13 nM cAMP.
(§2) EC50 values were determined using Activity Base analysis (ID Business Solution, Limited). The EC50 values for a wide range of cannabinoid agonists generated from this assay were in agreement with the values published in the scientific literature.

[2] = biological target: T2, human CB1 receptors (Homo sapiens, UniProt P21554); experiment: cAMP assay, human CB1; type: cell-based
T2 construct: expressed in transfected cells; host or cells: CHO cells
T2 sequence (P21554 whole entry): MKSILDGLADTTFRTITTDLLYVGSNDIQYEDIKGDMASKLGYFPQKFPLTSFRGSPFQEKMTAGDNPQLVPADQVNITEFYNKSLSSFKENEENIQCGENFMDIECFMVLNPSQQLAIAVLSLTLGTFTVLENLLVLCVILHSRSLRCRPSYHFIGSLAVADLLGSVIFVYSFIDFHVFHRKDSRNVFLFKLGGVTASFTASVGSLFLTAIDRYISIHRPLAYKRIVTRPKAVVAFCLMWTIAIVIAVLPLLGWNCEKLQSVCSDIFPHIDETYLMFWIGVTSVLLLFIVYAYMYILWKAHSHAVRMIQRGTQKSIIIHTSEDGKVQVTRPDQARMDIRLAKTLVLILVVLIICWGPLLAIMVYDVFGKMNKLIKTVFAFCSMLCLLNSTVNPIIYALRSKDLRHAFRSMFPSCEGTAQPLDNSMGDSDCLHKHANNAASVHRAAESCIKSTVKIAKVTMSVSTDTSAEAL
Experimental: as §1, §2

[3] = functional cAMP assay, CHO cells expressing human CB2, read-out: Ec50: CB2 - hu cAMP
[4] = functional cAMP assay, CHO cells expressing human CB1, read-out: Ec50: CB1 - hu cAMP

T1 sequence (P34972 whole entry): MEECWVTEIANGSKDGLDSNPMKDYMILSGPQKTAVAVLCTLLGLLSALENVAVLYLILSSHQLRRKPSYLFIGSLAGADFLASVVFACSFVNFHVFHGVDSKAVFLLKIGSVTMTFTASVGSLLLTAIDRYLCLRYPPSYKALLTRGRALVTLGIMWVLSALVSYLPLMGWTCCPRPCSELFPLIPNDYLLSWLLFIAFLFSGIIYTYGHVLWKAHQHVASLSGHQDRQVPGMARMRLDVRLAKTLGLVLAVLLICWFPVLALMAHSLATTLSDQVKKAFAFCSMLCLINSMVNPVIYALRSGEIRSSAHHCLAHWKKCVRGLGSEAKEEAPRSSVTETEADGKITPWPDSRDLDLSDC

pEC50 [1, 3]	pEC50 [2, 4]	SMILES	pEC50 [1]	pEC50 [2]
7.01	< 5.00	COC[C@@H]1CCCN1C(=O)n1nnn(-c2cccc(F)c2)c1=O [Example 21, 1-(3-Fluoro-phenyl)-4-((S)-2-methoxymethyl-pyrrolidine-1-carbonyl)-1,4-dihydro-tetrazol-5-one]	–	–
6.69	< 5.00	O=C(N1CCN(c2cnccn2)CC1)n1nnn(-c2cccc(F)c2)c1=O [Example 30, 1-(3-Fluoro-phenyl)-4-(2,3,5,6-tetrahydro-[1,2′]bipyrazinyl-4-carbonyl)-1,4-dihydro-tetrazol-5-one]	–	–
6.97	< 5.00	CC(C(=O)N1CCCC1)N1CCN(C(=O)n2nnn(-c3cccc(OC(F)(F)F)c3)c2=O)CC1 (stereo not drawn) [Example 117, 1-[4-(1-Methyl-2-oxo-2-pyrrolidin-1-yl-ethyl)-piperazine-1-carbonyl]-4-(3-trifluoromethoxy-phenyl)-1,4-dihydro-tetrazol-5-one]	–	–
–	–	CCN(CCOC)C(=O)n1nnn(-c2cccc(F)c2)c1=O [Example 7, 4-(3-Fluoro-phenyl)-5-oxo-4,5-dihydro-tetrazole-1-carboxylic acid ethyl-(2-methoxy-ethyl)-amide]	8.57	< 5.00
7.80	< 5.00	O=C(N1CCOCC1)n1nnn(-c2ccc(C(F)(F)F)cc2)c1=O [Example 121, 1-(morpholine-4-carbonyl)-4-[4-(trifluoromethyl)phenyl]tetrazol-5-one]	–	–
7.04	< 5.00	CC(=O)N1CCN(C(=O)n2nnn(-c3cccc(F)c3)c2=O)CC1 [Example 38, 1-(4-Acetyl-piperazine-1-carbonyl)-4-(3-fluoro-phenyl)-1,4-dihydro-tetrazol-5-one]	–	–
7.70	< 5.00	CCNC(=O)CN1CCN(C(=O)n2nnn(-c3cccc(OC(F)(F)F)c3)c2=O)CC1 [Example 105, N-Ethyl-2-{4-[5-oxo-4-(3-trifluoromethoxy-phenyl)-4,5-dihydro-tetrazole-1-carbonyl]-piperazin-1-yl}-acetamide]	–	–
7.62	< 5.00	CN(C)C(=O)CN1CCN(C(=O)n2nnn(-c3cccc(OC(F)(F)F)c3)c2=O)CC1 [Example 93, N,N-Dimethyl-2-{4-[5-oxo-4-(3-trifluoromethoxy-phenyl)-4,5-dihydro-tetrazole-1-carbonyl]-piperazin-1-yl}-acetamide]	–	–
–	–	CCOCCN(CC)C(=O)n1nnn(-c2ccc(Cl)cc2)c1=O [Example 100, 4-(4-Chloro-phenyl)-5-oxo-4,5-dihydro-tetrazole-1-carboxylic acid (2-ethoxy-ethyl)-ethyl-amide]	8.77	< 5.00
7.89	< 5.00	O=C(N1CCOCC1)n1nnn(-c2cc(F)cc(F)c2)c1=O [Example 126, 1-(3,5-difluorophenyl)-4-(morpholine-4-carbonyl)tetrazol-5-one]	–	–
8.60	< 5.00	O=C(N1CCC2(CCOC2)CC1)n1nnn(-c2cccc(F)c2)c1=O [Example 64, 1-(3-Fluoro-phenyl)-4-(2-oxa-8-aza-spiro[4.5]decane-8-carbonyl)-1,4-dihydro-tetrazol-5-one]	–	–
7.90	< 5.00	CCOCCN(CC)C(=O)n1nnn(-c2cccc(OC(F)(F)F)c2)c1=O [Example 99, 5-Oxo-4-(3-trifluoromethoxy-phenyl)-4,5-dihydro-tetrazole-1-carboxylic acid (2-ethoxy-ethyl)-ethyl-amide]	–	–
–	–	CCOCCN(C)C(=O)n1nnn(-c2cccc(OC(F)(F)F)c2)c1=O [Example 112, 5-Oxo-4-(3-trifluoromethoxy-phenyl)-4,5-dihydro-tetrazole-1-carboxylic acid (2-ethoxy-ethyl)-methyl-amide]	8.39	< 5.00
8.17	< 5.00	N#CC1CCN(C(=O)n2nnn(-c3cccc(F)c3)c2=O)CC1 [Example 61, 1-[4-(3-Fluoro-phenyl)-5-oxo-4,5-dihydro-tetrazole-1-carbonyl]-piperidine-4-carbonitrile]	–	–
6.78	< 5.00	N#CCCN(C(=O)n1nnn(-c2cccc(F)c2)c1=O)C1CC1 [Example 31, 4-(3-Fluoro-phenyl)-5-oxo-4,5-dihydro-tetrazole-1-carboxylic acid (2-cyano-ethyl)-cyclopropyl-amide]	–	–
5.52	< 5.00	CC(C)(C)OC(=O)N1CCC(n2nnn(-c3cccc(F)c3)c2=O)CC1 [Example 15, 4-[4-(3-Fluoro-phenyl)-5-oxo-4,5-dihydro-tetrazol-1-yl]-piperidine-1-carboxylic acid tert-butyl ester]	–	–
7.84	< 5.00	CC(=O)N[C@@H]1CCN(C(=O)n2nnn(-c3ccc(Cl)cc3)c2=O)C1 [Example 67, N—{(R)-1-[4-(4-Chloro-phenyl)-5-oxo-4,5-dihydro-tetrazole-1-carbonyl]-pyrrolidin-3-yl}-acetamide]	–	–
8.35	< 5.00	O=C(N1CCOCC1)n1nnn(-c2ccc(Cl)cc2)c1=O [Example 103, 1-(4-Chloro-phenyl)-4-(morpholine-4-carbonyl)-1,4-dihydro-tetrazol-5-one]	–	–
6.39	< 5.00	CC(C)Cn1nnn(C(=O)N(C)c2cccnc2)c1=O [Example 37, 4-Isobutyl-5-oxo-4,5-dihydro-tetrazole-1-carboxylic acid methyl-pyridin-3-yl-amide]	–	–
7.10	< 5.00	O=C(N1CCc2cc(F)ccc2C1)n1nnn(-c2cccc(F)c2)c1=O [Example 11, 1-(6-Fluoro-3,4-dihydro-1H-isoquinoline-2-carbonyl)-4-(3-fluoro-phenyl)-1,4-dihydro-tetrazol-5-one]	–	–
8.23	< 5.00	O=C(N1CCCC1c1ccc(F)cc1)n1nnn(-c2cccc(F)c2)c1=O (stereo not drawn) [Example 10, 1-(3-Fluoro-phenyl)-4-[2-(4-fluoro-phenyl)-pyrrolidine-1-carbonyl]-1,4-dihydro-tetrazol-5-one]	–	–
–	–	COCCN(C(=O)n1nnn(-c2cccc(Cl)c2)c1=O)C(C)C [Example 83, 4-(3-Chloro-phenyl)-5-oxo-4,5-dihydro-tetrazole-1-carboxylic acid isopropyl-(2-methoxy-ethyl)-amide]	8.28	< 5.00
5.93	< 5.00	O=c1n(Cc2ccc(F)cc2)nnn1-c1cccc(F)c1 [Example 14, 1-(4-Fluoro-benzyl)-4-(3-fluoro-phenyl)-1,4-dihydro-tetrazol-5-one]	–	–
7.74	< 5.00	CC(=O)N[C@H]1CCN(C(=O)n2nnn(-c3cccc(OC(F)(F)F)c3)c2=O)C1 [Example 69, N—{(S)-1-[5-Oxo-4-(3-trifluoromethoxy-phenyl)-4,5-dihydro-tetrazole-1-carbonyl]-pyrrolidin-3-yl}-acetamide]	–	–
7.79	< 5.00	CN(C)C(=O)CN1CCN(C(=O)n2nnn(-c3cccc(Cl)c3)c2=O)CC1 [Example 92, 2-{4-[4-(3-Chloro-phenyl)-5-oxo-4,5-dihydro-tetrazole-1-carbonyl]-piperazin-1-yl}-N,N-dimethyl-acetamide]	–	–
7.37	< 5.00	O=C(CN1CCN(C(=O)n2nnn(-c3ccc(Cl)cc3)c2=O)CC1)N1CCOCC1 [Example 91, 1-(4-Chloro-phenyl)-4-[4-(2-morpholin-4-yl-2-oxo-ethyl)-piperazine-1-carbonyl]-1,4-dihydro-tetrazol-5-one]	–	–
7.60	< 5.00	Cn1ccc(C2CCCN2C(=O)n2nnn(-c3cccc(F)c3)c2=O)n1 (stereo not drawn) [Example 19, 1-(3-Fluoro-phenyl)-4-[2-(1-methyl-1H-pyrazol-3-yl)-pyrrolidine-1-carbonyl]-1,4-dihydro-tetrazol-5-one]	–	–
7.28	< 5.00	CCN(CC)C(=O)N1CCN(C(=O)n2nnn(-c3cccc(F)c3)c2=O)CC1 [Example 40, 4-[4-(3-Fluoro-phenyl)-5-oxo-4,5-dihydro-tetrazole-1-carbonyl]-piperazine-1-carboxylic acid diethylamide]	–	–
8.33	< 5.00	O=C(CN1CCN(C(=O)n2nnn(-c3cccc(Cl)c3)c2=O)CC1)N1CCCC1 [Example 95, 1-(3-Chloro-phenyl)-4-[4-(2-oxo-2-pyrrolidin-1-yl-ethyl)-piperazine-1-carbonyl]-1,4-dihydro-tetrazol-5-one]	–	–
8.18	< 5.00	Cc1ccc(-n2nnn(C(=O)N3CCOCC3)c2=O)cc1 [Example 128, 1-(4-methylphenyl)-4-(morpholine-4-carbonyl)tetrazol-5-one]	–	–
